Two compounds from patent US8927590B2, “Synthesis of pyrrolidine compounds” (Zealand Pharma A/S, priority 2006, dated 2015) can be followed below.

Where two headings read alike, the source gives them in different places.

This data set is described as follows: Dynamic vapor sorption (DVS) at a series of relative humidity conditions. The class given is physicochemical. On the procedure: In some embodiments, the (2S,4R)-1-(2-aminoacetyl)-4-benzamidopyrrolidine-2-carboxylic acid hydrochloride monohydrate is characterized by dynamic vapor sorption (“DVS”). DVS data were collected using Dynamix Vapor Sorption Apparatus (DVS-1) made by Surface Measurement System Ltd. Samples were analyzed by subjecting them to a series of relative humidity (RH) conditions at 25° C. The relative humidity was scanned from about 0% to about 90%.

In the case of `Cl.NCC(=O)N1C[C@H](NC(=O)c2ccccc2)C[C@H]1C(=O)O` [(2S,4R)-1-(2-Aminoacetyl)-4-benzamidopyrrolidine-2-carboxylic acid hydrochloride], the “stability of the solid form to changes in humidity (DVS conclusion)” value is “not stable to environmental changes in humidity”. Besides, the “increase in mass when relative humidity increased from 0% RH to 90% RH” value (DVS, 25° C., first cycle, 0 to about 1200 min (FIG. 7)) came to 21.7%.
Turning to `Cl.NCC(=O)N1C[C@H](NC(=O)c2ccccc2)C[C@H]1C(=O)O.O` [(2S,4R)-1-(2-aminoacetyl)-4-benzamidopyrrolidine-2-carboxylic acid hydrochloride monohydrate], the “reversible change of mass between 0% RH and 10% RH” value (DVS, 25° C., 0% RH to 10% RH (FIG. 6)) is listed as “about 1.5%”. Besides, the “mass between 10% RH and about 70% RH” value (DVS, 25° C., 10% RH to about 70% RH (FIG. 6)) is on record as “relatively stable mass”. Besides, the “stability of the solid form to changes in humidity (DVS conclusion)” value (DVS, 25° C., RH cycled about 0% to about 90%) was “sorbed water is reversibly lost and does not appear to adversely affect the integrity of the crystalline form”. Besides, where the note is “DVS, 25° C., about 70% RH to 90% RH (FIG. 6)”, the “reversible mass change between about 70% RH and 90% RH” value is about 2.5%.
